Measured values reported in patent US11267797B2, “Anticancer agent” (Kyoto Pharmaceutical Industries, Ltd., priority 2014, dated 2022).
Counter-ions that a name gives are not always drawn.

Assay: Blood concentration after oral administration to rat or dog
Type: in vivo
Conditions: gavage to male SD rat or male beagle, suspended in 0.5% methylcellulose, 30 mg/kg or 100 mg/kg, respectively, HPLC or LC-MS/MS; for blood concentration of compound (A) after administration of the Example compound: 0.25-24 hr
Method: Experimental Example 2: Blood Concentration after Oral Administration to Rat or Dog
Compound (A) or Example compound suspended in 0.5% methylcellulose solution was administered by gavage to male SD rat or male beagle at a dose of 30 mg/kg or 100 mg/kg, respectively. At 0.25, 0.5, 1, 2, 4, 6 and 24 hr after administration, blood samples were collected from the cervical vein with a 1 mL syringe and was added in a 2.0 mL tube to which heparin was added. The blood was treated with acetonitrile, and the blood concentration of compound (A) was determined by using HPLC or LC-MS/MS.

SMILES | blood concentration of compound (A) after administration of the Example compound | maximum blood concentration of compound (A), compared with administration of compound (A) itself
O=C(/C=C(\O)c1cc2c(o1)C(=O)c1ccccc1C2=O)OCCO [Example 13, 2-Hydroxyethyl 3-(4,9-dioxo-4,9-dihydro-naphtho[2,3-b]furan-2-yl)-3-hydroxy-acrylate Ethanolamine Salt] | emerged in the blood over time | higher
COCC(C)(C)C(=O)OC(C)OC(=O)CC(=O)c1cc2c(o1)C(=O)c1ccccc1C2=O (stereo not drawn) [Example 54] | emerged in the blood over time | higher
O=C(CC(=O)c1cc2c(o1)C(=O)c1ccccc1C2=O)OCOC(=O)C(O)CO (stereo not drawn) [Example 60] | emerged in the blood over time | higher
CC(OC(=O)CC(=O)c1cc2c(o1)C(=O)c1ccccc1C2=O)OC(=O)OC[C@@H](O)CO (stereo partly drawn) [Example 65] | emerged in the blood over time | higher
CC(OC(=O)CC(=O)c1cc2c(o1)C(=O)c1ccccc1C2=O)OC(=O)OCC1COC(C)(C)O1 (stereo not drawn) [Example 66] | emerged in the blood over time | higher
C[C@H](N)C(=O)OCCOC(=O)CC(=O)c1cc2c(o1)C(=O)c1ccccc1C2=O.Cl [Example 74] | emerged in the blood over time | higher
N[C@@H](CO)C(=O)OCCOC(=O)CC(=O)c1cc2c(o1)C(=O)c1ccccc1C2=O [Example 75] | emerged in the blood over time | higher
COCCOC(=O)CC(=O)c1cc2c(o1)C(=O)c1ccccc1C2=O [Example 79] | emerged in the blood over time | higher
O=C(/C=C(\[O-])c1cc2c(o1)C(=O)c1ccccc1C2=O)OCC(O)CO.[Na+] (stereo not drawn) [Example 88] | emerged in the blood over time | higher
CCN(CC)CC#CCOC(=O)CC(=O)c1cc2c(o1)C(=O)c1ccccc1C2=O.Cl [Example 93] | emerged in the blood over time | higher
O=C(/C=C(\O)c1cc2c(o1)C(=O)c1ccccc1C2=O)OCC(O)CO (stereo not drawn) [Example 95] | emerged in the blood over time | higher
CC(C)N1CC(OC(=O)CC(=O)c2cc3c(o2)C(=O)c2ccccc2C3=O)C1.Cl [Example 114] | emerged in the blood over time | higher
Cl.O=C(CC(=O)c1cc2c(o1)C(=O)c1ccccc1C2=O)OCC#CCN1CCCC1 [Example 116] | emerged in the blood over time | higher
CC(C)[C@H](N)C(=O)OCCCOC(=O)CC(=O)c1cc2c(o1)C(=O)c1ccccc1C2=O.Cl [Example 120] | emerged in the blood over time | higher
O=C(/C=C(\O)c1cc2c(o1)C(=O)c1ccccc1C2=O)OCCOCCO [Example 125] | emerged in the blood over time | higher
O=C(/C=C(\O)c1cc2c(o1)C(=O)c1ccccc1C2=O)OCC(CO)CO [Example 126] | emerged in the blood over time | higher
O=C(/C=C(\O)c1cc2c(o1)C(=O)c1ccccc1C2=O)OCCOCC(O)CO (stereo not drawn) [Example 129] | emerged in the blood over time | higher
O=C(/C=C(\O)c1cc2c(o1)C(=O)c1ccccc1C2=O)OCCCO [Example 133] | emerged in the blood over time | higher
